From patent US20250288584A1, “COMBINATIONS COMPRISING POSITIVE ALLOSTERIC MODULATORS OR ORTHOSTERIC AGONISTS OF METABOTROPIC GLUTAMATERGIC RECEPTOR SUBTYPE 2 AND THEIR USE” (JANSSEN PHARMACEUTICA NV, priority 2014, published 2025)
Read-outs that look alike come from different tables or passages of the source.

Tests used:
[1] = tested on: 6 Hz (44 mA) psychomotor seizures; experiment: 6 Hz psychomotor seizure test, 44 mA (alone, combination with LEV, isobolographic study); assay type: in vivo, mice; conditions: Mus musculus, 6 Hz (44 mA); [CAS 1092453-15-0] 20 mg/kg, alone; read-out: # protected/# tested (converted)
Protocol: Test compounds were administered using an optimal fluid volume to body fluid ratio. Test compounds were administered to mice in a volume of 0.01 mL/g of body weight (White H. S., et al., General Principles: Experimental selection, quantification, and evaluation of antiepileptic drugs, in Antiepileptic Drugs, Fourth Edition, […], and B. S. Meldrum, Editors. 1995, Raven Press, Ltd.: New York, pp. 99-110). For subcutaneous (s.c.) administration, the test compounds were administered into a loose fold of skin along the back of the animal except compound 6-b, which was administered orally (p.o). […] The animals were maintained on an adequate diet (Prolab RMH 3000) and allowed free access to food and water, except during the short time they were removed from their cage for testing. Animals newly received in the laboratory were allowed sufficient time to correct for possible food and water restriction incurred during transit before being employed in testing. All mice were housed in plastic cages in specially constructed rooms with controlled humidity, exchange of air and controlled lighting (12 hours on-12 hours off). The animals were housed, fed, and handled in a manner consistent with the recommendations in the National Council Publication, “Guide for the Care and Use of Laboratory Animals”. In the determination of an ED50 or TD50 for each test compound, the first dose administered is usually the same dose as that used in a successful TPE determination. […] Third and fourth doses were selected to produce an evenly spaced dose response line. […] The 6 Hz seizure test is used as a model of pharmacoresistant limbic seizures. […] Focal seizures were induced in mice via corneal stimulation (6 Hz, 0.2 msec rectangular pulse, 3 sec duration; Barton et al. 2001). Mice were tested at either 32 mA or 44 mA. […] The seizures that arise from corneal stimulation in this assay are characterized by a minimal clonic phase followed by stereotyped automatistic behaviors including stun, forelimb clonus, twitching of the vibrissae, and Straub-tail. Animals not displaying these behaviors were considered protected. […] In addition to recording the efficacy and toxicity data for these compounds alone or in combination, both plasma and brain samples were collected from each of the groups for pharmacokinetic/pharmacokinetic analysis. No pharmacokinetic interaction was observed based on compound levels in the plasma and brain samples (data not shown). Isobolographic studies were conducted for the combined administration of Co. […] Studies were conducted according to previously described methods (Madsen et al. 2011). Initial ED50 values were determined for both Co. […] Co. […] Doses used were proportional to calculated ED50 values. […] Experimental treatment doses (see Table 4) were based on theoretical values and adjusted according to observed effects. Experimentally determined ED50 (+SEM) values for each fixed dose-ratio combination were compared to the theoretical values (t-test) for statistical purposes. […] Subsequently, the experimental combined doses were determined for the same paradigms in the 6 Hz seizure test (Table 4 below).

[2] = Minimal motor impairment (rotarod); assay type: in vivo, mice; conditions: [CAS 1092453-15-0] 20 mg/kg, alone
Protocol: Acute MMI was assessed by a combination of direct observations of the animal for overt symptoms of the animal's neurological or muscular function. In mice, the rotarod procedure was used to disclose minimal muscular or neurological impairment. When a mouse is placed on a rod that rotates at a speed of 6 rpm, the animal can maintain its equilibrium for long periods of time. The animal was considered toxic if it fell off this rotating rod three times during a 1 min period.
In the determination of an ED50 or TD50 for each test compound, the first dose administered is usually the same dose as that used in a successful TPE determination.
If the initial dose employed was effective or toxic in more than 50% of animals, the next dose would be one-half that of the initial dose; if the initial dose was effective or toxic in less than 50% of animals, the following dose would be twice that of the initial dose. Third and fourth doses were selected to produce an evenly spaced dose response line. There should be a minimum of 4 points either including or lying between 0 and 100%.

human mGlu2 receptor = target: T1, human mGlu2 receptor (Homo sapiens, UniProt Q14416); experiment: [35S]GTPγS binding assay, mGluR2 PAM; assay type: biochemical; conditions: for EC50 / GTPγS-hmGluR2 PAM pEC50: in presence of EC20 glutamate; for EC50: read-out: GTPγS-hmGluR2 PAM pEC50 (converted)
T1 construct: expressed in transfected cells; host or cells: CHO cells
Protocol: The [^35S]GTPγS binding assay is a functional membrane-based assay used to study G-protein coupled receptor (GPCR) function whereby incorporation of a non-hydrolysable form of GTP, [^35S]GTPγS (guanosine 5′-triphosphate, labelled with […] ^35S), is measured.
Cells were then collected by scraping in PBS and cell suspension was centrifuged (10 min at 4000 RPM in benchtop centrifuge). Supernatant was discarded and pellet gently resuspended in 50 mM Tris-HCl, pH 7.4 by mixing with a vortex and pipetting up and down. The suspension was centrifuged at 16,000 RPM (Sorvall RC-5C plus rotor SS-34) for 10 minutes and the supernatant discarded. The pellet was homogenized in 5 mM Tris-HCl, pH 7.4 using an ultra-turrax homogenizer and centrifuged again (18,000 RPM, 20 min, 4° C.). The final pellet was resuspended in 50 mM Tris-HCl, pH 7.4 and stored at-80° C. in appropriate aliquots before use. Protein concentration was determined by the Bradford method (Bio-Rad, USA) with bovine serum albumin as standard.
Measurement of mGluR2 positive allosteric modulatory activity of test compounds was performed as follows. Test compounds and glutamate were diluted in assay buffer containing 10 mM HEPES acid, 10 mM HEPES salt, pH 7.4, 100 mM NaCl, 3 mM MgCl2 and 10 μM GDP. Human mGlu2 receptor-containing membranes were thawed on ice and diluted in assay buffer supplemented with 14 μg/ml saponin. Membranes were pre-incubated with compound alone or together with a predefined (˜EC20) concentration of glutamate (PAM assay) for 30 min at 30° C. After addition of [^35S] GTPγS (f.c. 0.1 nM), assay mixtures were shaken briefly and further incubated to allow [^35S] GTPγS incorporation on activation (30 minutes, 30° C.). Final assay mixtures contained 7 μg of membrane protein in 10 mM HEPES acid, 10 mM HEPES salt, pH 7.4, 100 mM NaCl, 3 mM MgCl2, 10 µM GDP and 2 μg/ml saponin. Total reaction volume was 200 μl. Reactions were terminated by rapid filtration through Unifilter-96 GF/B plates (Perkin Elmer, Massachusetts, USA) using a 96-well filtermate universal harvester. Filters were washed 6 times with ice-cold 10 mM NaH2PO4/10 mM Na2HPO4, pH 7.4. Filters were then air-dried, and 40 μl of liquid scintillation cocktail (Microscint-O) was added to each well. Membrane-bound radioactivity was counted in a Microplate Scintillation and Luminescence Counter from Perkin Elmer.
The concentration-response curves of representative compounds of the present invention-obtained in the presence of EC20 of mGluR2 agonist glutamate to determine positive allosteric modulation (PAM)—were generated using the Lexis software interface (developed at J&J). Data were calculated as % of the control glutamate response, defined as the maximal response that is generated upon addition of glutamate alone. Sigmoid concentration-response curves plotting these percentages versus the log concentration of the test compound were analyzed using non-linear regression analysis. The concentration producing half-maximal effect is then calculated as EC50. The pEC50 values below were calculated as the −log EC50, when the EC50 is expressed in M. Emax is defined as relative maximal effect (i.e. maximal % effect relative to the control glutamate response).

[3] = maximal % effect relative to control glutamate response, EC20 glutamate, read-out: GTPγS-hmGluR2 PAM Emax

T1 sequence (Q14416 19-872): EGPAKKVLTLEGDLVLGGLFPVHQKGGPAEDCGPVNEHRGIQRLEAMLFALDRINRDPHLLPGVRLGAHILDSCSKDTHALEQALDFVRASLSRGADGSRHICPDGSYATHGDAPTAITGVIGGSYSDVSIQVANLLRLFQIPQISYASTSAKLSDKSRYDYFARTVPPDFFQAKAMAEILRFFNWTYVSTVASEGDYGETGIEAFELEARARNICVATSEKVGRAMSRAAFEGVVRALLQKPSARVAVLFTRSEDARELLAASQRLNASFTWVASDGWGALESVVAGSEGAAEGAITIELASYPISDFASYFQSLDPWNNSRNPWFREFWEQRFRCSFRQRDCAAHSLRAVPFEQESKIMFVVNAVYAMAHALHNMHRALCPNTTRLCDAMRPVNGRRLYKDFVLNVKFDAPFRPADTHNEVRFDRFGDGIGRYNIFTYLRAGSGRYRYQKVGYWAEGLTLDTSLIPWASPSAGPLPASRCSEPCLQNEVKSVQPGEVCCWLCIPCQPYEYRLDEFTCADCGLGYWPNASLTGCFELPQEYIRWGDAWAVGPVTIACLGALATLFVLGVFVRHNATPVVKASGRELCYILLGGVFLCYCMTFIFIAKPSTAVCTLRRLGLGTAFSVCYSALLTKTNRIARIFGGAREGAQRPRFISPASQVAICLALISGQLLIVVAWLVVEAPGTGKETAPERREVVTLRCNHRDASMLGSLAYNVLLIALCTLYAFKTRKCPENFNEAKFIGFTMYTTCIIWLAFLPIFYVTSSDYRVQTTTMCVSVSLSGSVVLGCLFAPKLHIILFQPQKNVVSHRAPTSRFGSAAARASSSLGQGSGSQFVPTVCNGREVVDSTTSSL

Structure (SMILES): Cc1cc(-c2nc(CN3CCNCC3)no2)cc2c1C(=O)N(Cc1ccc(OC(F)(F)F)cc1)C2 [[CAS 1092453-15-0]]
- responders at 20 mg/kg [1]: 0%
- # rotarod motor impairment/# tested [2]: 0/8
- Emax (human mGlu2 receptor; GTPγS assay, read-out: Emax): 197%

Structure (SMILES): O=c1c(Cl)c(N2CCC(c3ccc(N4CCOCC4)cc3)CC2)ccn1CC1CC1 [Co. No. 13-a]
- EC50 (human mGlu2 receptor): 214 nM
- Emax (human mGlu2 receptor; [3]): 212%

Structure (SMILES): CCCCn1ccc(N2CCC(CO)(c3ccccc3)CC2)c(Cl)c1=O [Co. No. 22-a]
- Emax (human mGlu2 receptor; [3]): 259%

Structure (SMILES): C[C@H](Oc1ccc(F)c(F)c1)c1ccn2c(CC3CC3)nnc2c1C(F)(F)F [Co. No. 8-b, 3-(Cyclopropylmethyl)-7-[(1S)-1-(3,4-difluorophenoxy)ethyl]-8-(trifluoromethyl)[1,2,4]triazolo[4,3-a]pyridine]
- Emax (human mGlu2 receptor; [3]): 244%

Structure (SMILES): CC(C)(O)c1ccc(C2CCN(c3ccn(CC4CC4)c(=O)c3C3CC3)CC2)cc1 [Co. No. 9-a]
- EC50 (human mGlu2 receptor): 257 nM
- Emax (human mGlu2 receptor; [3]): 222%

Structure (SMILES): CCOCc1nnc2c(C(F)(F)F)c(C(C)Oc3ccc(F)cc3F)ccn12 (single isomer, unassigned) [Co. No. 20-b, 7-[(1*R)-1-(2,4-Difluorophenoxy)ethyl]-3-(ethoxymethyl)-8-(trifluoromethyl)[1,2,4]triazolo[4,3-a]pyridine]
- GTPγS-hmGluR2 PAM Emax (human mGlu2 receptor; maximal % effect relative to control glutamate response, EC20 glutamate, listed as 20-b): 332%

Structure (SMILES): Fc1ccc(N2CCN(Cc3ccn4c(CC5CC5)nnc4c3Cl)CC2)c(F)c1 [Co. No. 5]
- EC50 (human mGlu2 receptor): 550 nM
- Emax (human mGlu2 receptor; [3]): 231%

Structure (SMILES): O=c1c(Cl)c(N2CCC(CF)(c3ccccc3)CC2)ccn1CC1CC1 [Co. No. 21-a]
- Emax (human mGlu2 receptor; [3]): 207%

Structure (SMILES): CC(Oc1ccc(F)cc1)c1ccn2c(CC3CC3)nnc2c1C(F)(F)F (single isomer, unassigned) [Co. No. 3-b, 3-(Cyclopropylmethyl)-7-[(1*S)-1-(4-fluorophenoxy)ethyl]-8-(trifluoromethyl)[1,2,4]triazolo[4,3-a]pyridine]
- GTPγS-hmGluR2 PAM Emax (human mGlu2 receptor; maximal % effect relative to control glutamate response, EC20 glutamate, listed as 3-b): 187%

Structure (SMILES): CCCCn1ccc(N2CCC3(CC2)COc2ccccc23)c(Cl)c1=O [Co. No. 33-a]
- EC50 (human mGlu2 receptor): 263 nM
- Emax (human mGlu2 receptor; [3]): 362%

Structure (SMILES): CC(Oc1ccc(F)cc1)c1ccn2c(CC3CC3)nnc2c1C(F)(F)F (single isomer, unassigned) [Co. No. 2-b, 3-(Cyclopropylmethyl)-7-[(1*R)-1-(4-fluorophenoxy)ethyl]-8-(trifluoromethyl)[1,2,4]triazolo[4,3-a]pyridine]
- GTPγS-hmGluR2 PAM Emax (human mGlu2 receptor; maximal % effect relative to control glutamate response, EC20 glutamate, listed as 2-b): 228%

Structure (SMILES): CCOCc1nnc2c(C(F)(F)F)c(C(C)Oc3c(F)cc(F)cc3F)ccn12 (single isomer, unassigned) [Co. No. 23-b, 3-(Ethoxymethyl)-8-(trifluoromethyl)-7-[(1*S)-1-(2,4,6-trifluorophenoxy)ethyl][1,2,4]triazolo[4,3-a]pyridine]
- GTPγS-hmGluR2 PAM Emax (human mGlu2 receptor; maximal % effect relative to control glutamate response, EC20 glutamate, listed as 23-b): 167%

Structure (SMILES): O=c1c(Cl)c(N2CCC(c3ccccc3Cl)CC2)ccn1CC1CC1 [Co. No. 15-a]
- GTPγS-hmGluR2 PAM pEC50 (human mGlu2 receptor): 7
- Emax (human mGlu2 receptor; [3]): 253%

Structure (SMILES): CC(Oc1ccc(F)cc1F)c1ccn2c(CC3CC3)nnc2c1C(F)(F)F (centres unmarked) [Co. No. 4-b, 3-(Cyclopropylmethyl)-7-[1-(2,4-difluorophenoxy)ethyl]-8-(trifluoromethyl)[1,2,4]triazolo-[4,3-a]pyridine]
- Emax (human mGlu2 receptor; [3]): 329%

Structure (SMILES): O=c1c(Cl)c(N2CCC(c3ccccc3F)CC2)ccn1CC1CC1 [Co. No. 12-a]
- GTPγS-hmGluR2 PAM pEC50 (human mGlu2 receptor): 7.03
- Emax (human mGlu2 receptor; [3]): 242%

Structure (SMILES): C[C@H](Oc1c(F)cccc1F)c1ccn2c(CC3CC3)nnc2c1C(F)(F)F [Co. No. 11-b, 3-(Cyclopropylmethyl)-7-[(1S)-1-(2,6-difluorophenoxy)ethyl]-8-(trifluoromethyl)[1,2,4]triazolo[4,3-a]pyridine]
- Emax (human mGlu2 receptor; [3]): 239%

Structure (SMILES): C[C@H](Oc1c(F)cc(F)cc1F)c1ccn2c(CC3CC3)nnc2c1C(F)(F)F [Co. No. 15-b, 3-(Cyclopropylmethyl)-8-(trifluoromethyl)-7-[(1S)-1-(2,4,6-trifluorophenoxy)ethyl][1,2,4]triazolo[4,3-a]pyridine]
- Emax (human mGlu2 receptor; read-out: GTPγS-hmGluR2 PAM Emax, maximal % effect relative to control glutamate response, EC20 glutamate): 293%

Structure (SMILES): O=c1c(C2CC2)c(N2CCC(c3ccccc3)CC2)ccn1CC1CC1 [Co. No. 8-a]
- Emax (human mGlu2 receptor; [3]): 157%
